Assay [1] has as its system neuroquinine A receptor (receptor NK-2). As to the kind of experiment: inhibition of NKA-induced contraction of isolated rabbit pulmonary artery. The class given is cell-based. The following applies: NKA 3 nM. The procedure: The capacity of the products described in the present invention to interact with the neuroquinine A receptor as agonists or antagonists was assessed using a preparation characterized by the fact that the biological response produced by tachyquinines and correlated peptides was exclusively determined by the neuroquinine A receptor (receptor NK-2). The said preparation consisted of isolated rabbit pulmonary artery affected by a dose-dependent contraction brought about by tachyquinines (Rovero et al., Neuropeptides, 13, 263-270, 1989). The determination of the peptide activity in the test preparation was based on the use of an NKA concentration (3 nM) causing a response equal to 45% of max. response. The peptides considered herein were added to the preparation in growing concentrations. Their activity was assessed as inhibition of response to NKA.

The subject of assay [2] is P substance receptor (receptor NK-1). The assay can be described thus: inhibition of SP methyl ester-induced contraction of isolated guinea pig ileum. The class given is cell-based. Set-up: dose or concentration left out as unconfirmed. The following applies: SP methyl ester 10 nm. The procedure: The capacity of the products described herein to interact with the P substance receptor (receptor NK-1) was assessed through an in vitro test, where the biological response produced by tachyquinines and correlated peptides was exclusively determined by the P substance receptor. The test preparation consisted of isolated guinea pig ileum affected by a dose-dependent contraction brought about by tachyquinines (Lee et al., Schmied. Arch. Pharmacol., 318, 281-287, 1982). The determination of the activity of the products as per the present invention in the test preparation was based on the use of an SP methyl ester concentration (10 nm) causing a response equal to 45% of max. response (S. Dion et al., Life Sci., 41, 2269-2278, 1987). The products considered herein were added to the preparation in growing concentrations. Their activity was assessed as inhibition of response to SP with satisfactory results.

The text below walks through data of patent EP0636146B1, “TACHYKININ ANTAGONIST TRICYCLIC COMPOUNDS, PREPARATION OF SAME AND PHARMACEUTICAL COMPOSITIONS CONTAINING SUCH COMPOUNDS” (A. MENARINI INDUSTRIE FARMACEUTICHE RIUNITE S.R.L., priority 1992, dated 1997).

On to cyclo(MDWFL) [compound 1], for which the “inhibition of response to neuroquinine A” value in assay [1] is 100%. Besides, the “inhibition of response to SP methyl ester” value in assay [2] came to 100%.
